# In US10201586B2 (dated 2019):
# Where a SMILES comes first, the peptide text is derived from it. [ ]: non-standard residue; d: D form. Tle = CC(C)(C)[C@H](N)C(=O)O; Aib = CC(C)(N)C(=O)O
# Tests used:
# TFPI = TFPI (Homo sapiens, UniProt P10646); assay: IC50 Mean (nM]
# Description: Head of the field: IC50 Mean (nM]
# “*” denotes negative controls.
# [1] = pharmacokinetic analysis in mice; type: in vivo, mouse; conditions: C57B16 mice, 1 mg/kg (peptide content)
# Experimental: The peptides were administered intravenously to C57B16 mice at a dose of 10 mg/kg. Three biological samples were analyzed for the presence of peptide at each time point.
# For pharmacokinetic analysis, C57B16 mice were treated with various TFPI-binding peptides conjugated to different molecular weight PEGs and HSA. The dose of the peptide-PEG and peptide-HSA conjugates was normalized to 1 mg/kg (peptide content). […] Blood draws were taken from three animals (retro bulbar) and collected in heparinized vials at several time points following administration. The samples were centrifuged, and the peptide-conjugate content in plasma was quantified by ELISA.
# FVIII knock-out mice = conditions: 1 mg/kg JBT2329 without ADVATE
# C57B1/6NCr1 mice = assay: nail clip blood loss study; type: in vivo, mouse
# [2] = plasma stability in human plasma; type: in vitro ADME; conditions: 24 hour
# FIX knock-out mice = assay: tail-tip bleed model; type: in vivo, mouse
# Experimental: The amount of blood was determined gravimetrically.
# JBT2329 also was tested in a FIX knock-out tail-tip bleed mouse model, which is a clinically-relevant model for hemophilia B human patients. The methodology was substantially similar to that described above with respect to the FVIII knock-out model. Instead of ADVATE, a recombinant FIX (rFIX) served as a reference. Median total blood loss in buffer-treated animals was 935 mg. Median total blood loss in animals treated with a murine anti-TFPI antibody (maTFPI) was 774 mg. Median total blood loss was reduced further when the animals received combined treatment of maTFPI and rFIX.
# [3] = tested on: human whole blood clot formation; assay: rotation thromboelastography (ROTEM); conditions: Hem A (FVIII-inhibited) human whole blood
# Experimental: Continuous visco-elastic assessment of human whole blood clot formation and firmness was performed by rotation thromboelastography with whole blood preparations in the presence or absence of peptides.
# Recordings were made using a ROTEM thromboelastography coagulation analyzer (Pentapharm, Munich, Germany) at 37° C. Briefly, blood is added into a disposable cuvette in a heated cuvette holder. A disposable pin (sensor) is fixed on the tip of a rotating axis. The axis is guided by a high precision ball bearing system and rotates back and forth. The axis is connected with a spring for the measurement of elasticity. The exact position of the axis is detected by the reflection of light on a small mirror on the axis. The loss of elasticity when the sample clots leads to a change in the rotation of the axis. The data obtained are computer analyzed and visualized in a thromboelastogram. […] An elasticity of approximately zero is observed before clot formation begins. Mirror image traces above and below the zero line indicate the effect of clot formation on the rotation of the axis.
# The analytical set-up was as follows: to 20 μL of test sample or control, 300 μL of pre-warmed (37° C.) CTI treated citrated whole blood was added, followed by 20 μL of a 1:15 dilution of TF PRP reagent containing recombinant human tissue factor (rTF, 3 pM) (TS40, Thrombinoscope BV, Maastricht, The Netherlands).
# The thromboelastographic parameters of clotting time (CT), clot formation time (CFT) and maximum clot firmness (MCF) were recorded in accordance with the manufacturer's instructions. CT is defined as the time from the start of measurement to the start of clot formation. CFT is defined as the time from the start of clot formation until an amplitude of 20 mm is reached. MCF is the maximum difference in amplitude between the two traces during the assay. The first derivative of the data of the thromboelastogram are plotted to obtain a graph of velocity (mm/s) against time (s). From this graph, the maximum velocity (maxV) is determined. The time at which the maximum velocity is obtained (maxV-t) is also determined.
# [4] = molecular target: Tissue Factor Pathway Inhibitor (TFPI) (Homo sapiens, UniProt P10646); assay: IC50 ELISA | IC50 [nM]
# Sequence of Tissue Factor Pathway Inhibitor (TFPI) (P10646 29-304 limits assumed): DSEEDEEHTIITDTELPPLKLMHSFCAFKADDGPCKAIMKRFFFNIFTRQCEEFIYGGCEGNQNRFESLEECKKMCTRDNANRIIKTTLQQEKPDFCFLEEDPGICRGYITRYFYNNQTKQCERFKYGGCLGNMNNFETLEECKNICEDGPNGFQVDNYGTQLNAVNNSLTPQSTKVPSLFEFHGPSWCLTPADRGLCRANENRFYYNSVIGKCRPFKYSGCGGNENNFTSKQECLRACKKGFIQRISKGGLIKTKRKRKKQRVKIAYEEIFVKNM
# Sequence of TFPI (P10646 29-304 limits assumed): as above
molecule,measurement,setting,value
CC[C@H](C)[C@H](NC(=O)[C@@H](NC(=O)CNC(=O)[C@@H]1CCCN1C(=O)CNC(=O)[C@H](Cc1c[nH]c2ccccc12)NC(=O)[C@@H](NC(=O)[C@@H](NC(=O)[C@H](CCCCN)NC(=O)[C@H](CO)NC(=O)[C@H](Cc1c[nH]c2ccccc12)NC(=O)[C@H](Cc1ccccc1)NC(=O)[C@H](Cc1ccc(O)cc1)NC(=O)[C@@H](NC(=O)[C@H](Cc1c[nH]c2ccccc12)NC(=O)[C@H](CC(=O)O)NC(=O)CNC(=O)[C@@H](NC(=O)[C@H](CC(C)C)NC(=O)[C@H](CCCCN)NC(=O)[C@H](CCCCN)NC(C)=O)[C@@H](C)O)[C@@H](C)O)C(C)C)[C@@H](C)CC)C(C)C)C(=O)N[C@@H](CCC(=O)O)C(=O)N[C@@H](CCCNC(=N)N)C(=O)N[C@@H](CCC(N)=O)C(=O)N[C@@H](CCSC)C(=O)N1CCC[C@H]1C(=O)N[C@H](C(=O)N[C@@H](CO)C(=O)N[C@H](C(=O)N[C@@H](Cc1ccccc1)C(=O)N[C@@H](Cc1c[nH]cn1)C(=O)N[C@@H](CCCCN)C(=O)N[C@@H](CCCCN)C(N)=O)[C@@H](C)O)C(C)C [JBT0177* | 3065] (Ac-KKLTGDWTYFWSKVIWGPGVIERQMPVSTFHKK-NH2),IC50,TFPI,> 50000 nM
Ac-FQSKpNVHVDGYFERL-Aib-AKLC(PEG)-NH2 [JBT2329],HL_λ_z [h] (intravenous),[1]; intravenous,19.8 h
same,Bioavailability [%] (s.c.),[1]; s.c. AUC vs i.v. AUC,73.3%
same,median total blood loss vs buffer,FVIII knock-out mice,did not reduce median total blood loss
same,"blood loss, second 30 minute period",C57B1/6NCr1 mice; 0.1 mg/kg i.v.,18.7 µL
same,"reduction of blood loss vs vehicle, first 30 minutes",C57B1/6NCr1 mice; 0.1 mg/kg i.v.,about 50%
same,"reduction of blood loss vs vehicle, second 30 minute period",C57B1/6NCr1 mice; 0.1 mg/kg i.v.,about 64%
same,reduction of total blood loss over 60 minutes vs vehicle,C57B1/6NCr1 mice; 0.1 mg/kg i.v.,~60%
same,total blood loss over 60 minutes,C57B1/6NCr1 mice; 0.1 mg/kg i.v.,34.7 µL
same,"blood loss, first 30 minutes","C57B1/6NCr1 mice; 0.1 mg/kg i.v., naive C57BL6 mice",16.0 µL
same,"blood loss, entire 60 minute collection period",C57B1/6NCr1 mice; 1.0 mg/kg i.v.,22.8 µL
same,"blood loss, first 30 minutes",C57B1/6NCr1 mice; 1.0 mg/kg i.v.,12.2 µL
same,"blood loss, second 30 minute period",C57B1/6NCr1 mice; 1.0 mg/kg i.v.,10.6 µL
same,reduction of blood loss during 60 minutes vs vehicle,C57B1/6NCr1 mice; 10 mg/kg subcutaneous,approximately 58%
same,"Human Plasma Stability, 24 hour (%)",[2],67.3%
same,median total blood loss vs buffer,FIX knock-out mice; 1 mg/kg JBT2329 alone (p=0.321),did not lead to a significant reduction in median total blood loss
same,Efficacy vs buffer at a […] level,FIX knock-out mice; JBT2329 1 mg/kg or 0.1 mg/kg in combination with 10 IU/kg rFIX,statistically significant superiority over buffer
same,coagulation parameters,[3],restored prolonged coagulation parameters in Hem A blood
"CC(=O)N[C@@H](Cc1ccccc1)C(=O)N[C@@H](CCC(N)=O)C(=O)N[C@@H](CC(=O)O)C(=O)N[C@@H](CCCCN)C(=O)N1CCC[C@@H]1C(=O)N[C@@H](CC(N)=O)C(=O)N[C@H](C(=O)N[C@@H](Cc1c[nH]cn1)C(=O)N[C@H](C(=O)N[C@@H](CC(=O)O)C(=O)NCC(=O)N[C@@H](Cc1ccc(O)cc1)C(=O)N[C@@H](Cc1ccccc1)C(=O)N[C@@H](CCC(=O)O)C(=O)N[C@@H](CCCNC(=N)N)C(=O)N[C@@H](CC(C)C)C(=O)NC(C)(C)C(=O)N[C@@H](C)C(=O)N[C@@H](CCCCN)C(=O)N[C@@H](CC(C)C)C(N)=O)C(C)(C)C)C(C)C [JBT2426 | 4144, Ac-FQDKpNVH-Tle-DGYFERL-Aib-AKL-NH2] (Ac-FQDK[dP]NVH[Tle]DGYFERL[Aib]AKL-NH2)",IC50,[4],10.5 nM
